Experimental data from PubChem BioAssay AID179 (DTP/NCI, 2004).
Where “and” joins values, the source holds several entries; their conditions need not be identical. Identical values can stand only once. Calls of active or inactive are those of the source.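 How the source made its calls: active means compounds giving half or more protection of infected cells from virus-caused growth loss, again on retest; inactive means the rest.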

Test system: CEM cells HIV-1 protection, formazan growth assay
Assay: NCI AIDS Antiviral Assay
Settings: for IC50: measured here: growth of uninfected CEM cells
Procedure, shortened: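 Protection of CEM cells against HIV-1 was scored from cell growth (soluble formazan) across five concentrations, with parallel uninfected cells. Lack of protection may reflect toxicity.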

CSc1sc(=S)sc1C(=O)N(C)c1ccccc1
EC50: > 200 µM | IC50: > 200 µM

Cc1n[nH]c(=S)n1NC=O
EC50: > 200 µM | IC50: > 200 µM

COC(=O)c1nn(-c2ccccc2)c(=O)cc1N=[N+]=[N-]
EC50: > 200 µM | IC50: 112 µM

O=c1c(Cl)nsnc1Cl
EC50: > 490 µM | IC50: 28.2 µM

Oc1cccc2c1NC1=C(CCC/C1=C\c1ccccc1)C2
EC50: > 9.33 µM | IC50: > 9.33 µM

CCOc1ccc(/C=C2/NC(=S)N(CN3CCCCC3)C2=O)cc1
EC50: > 200 µM | IC50: 72.4 µM

C=C1c2nc3ccccc3n2C=C(c2ccccc2)N1c1ccccc1
EC50: > 200 µM | IC50: 3.98 µM

CC[C@@]1(OC(=O)C(N)CCCCN)C(=O)OCc2c1cc1n(c2=O)Cc2cc3ccccc3nc2-1 (some centres not stated)
EC50: > 10 µM | IC50: 0.0112 µM

CN(C)c1ccc(/C=N\NC(=O)c2ccccc2Nc2ccccc2C(=O)N/N=C/c2ccc(N(C)C)cc2)cc1
EC50: 66.1 µM | IC50: > 200 µM

O=[N+]([O-])c1ccccc1S(=O)c1ccccc1[N+](=O)[O-]
EC50: > 204 µM | IC50: 3.47 µM

COc1ccc(/C=C(\C#N)c2ccccc2[N+](=O)[O-])cc1
EC50: > 200 µM | IC50: 12.6 µM

CN(C)c1ccc(/C=C/c2ccnc3ccccc23)cc1
EC50: > 200 µM | IC50: 10.7 µM

CC(=O)c1ccc(Br)cc1NC1=CC(=O)c2ncccc2C1=O
EC50: > 200 µM | IC50: 4.68 µM

CC1CN2CCc3c([nH]c4ccccc34)C2C[C@@H]1CC(=O)N(C)C (some centres not stated)
EC50: > 191 µM | IC50: > 191 µM

Cc1ccc2nc(NC(=S)SSC(=S)Nc3nc4ccc(C)cc4s3)sc2c1
EC50: > 200 µM | IC50: 0.537 µM

N=C(N)SCCCON
EC50: > 200 µM | IC50: > 200 µM

Cc1cn(C2C=CCCC2)c(=O)[nH]c1=O (configuration not stated)
EC50: > 871 µM | IC50: > 871 µM

C[C@H](COCP(=O)(O)O)n1cnc2c(N)ncnc21
EC50: > 200 µM | IC50: > 200 µM

N#C/C(=C\c1ccccc1Cl)C(=O)c1ccccc1
EC50: > 132 µM | IC50: 13.2 µM

N#CCCN(CCN(C(=O)Nc1ccccc1)c1ccccc1)C(=O)Nc1ccccc1
EC50: > 200 µM | IC50: 55 µM

COc1cccc(C2SC(N)=Nc3c2c(C)nn3C(=O)c2ccccc2O)c1 (configuration not stated)
EC50: > 2 µM | IC50: 0.17 µM

N#CC1CCCCOCCOCCOCCOCCOCCCCCC1=O (configuration not stated)
outcome: inactive

CCOC(=O)C(=O)/C(=C/n1c(=S)[nH]c2ccc([N+](=O)[O-])cc21)C(=O)OCC
EC50: > 200 µM | IC50: 77.6 µM

COC(=O)C(C)(C)C(OP(=S)(OC)OC)=C(C)C
EC50: > 200 µM | IC50: > 200 µM

COc1cc2cc3c(c(-c4ccc5c(c4)OCO5)c2c(OC)c1OC)COC3=O
EC50: > 34.7 µM | IC50: 17.8 µM

COc1ccc(S(=O)(=O)O)cc1NS(=O)(=O)c1ccc(C)cc1
EC50: > 200 µM | IC50: > 200 µM

Cc1ccc(S(=O)(=O)N/N=C/C(=C/c2ccc(Cl)cc2)CC(/C=N/NS(=O)(=O)c2ccc(C)cc2)=C\c2ccc(Cl)cc2)cc1
EC50: > 200 µM | IC50: 3.89 µM

O=C1C2CCC(N1CCc1ccccc1)n1c(=O)n(-c3ccccc3)c(=O)n12 (configuration not stated)
EC50: > 200 µM | IC50: > 200 µM

COc1cccc(C2c3cc4c(cc3OC3COC(=O)C32)OCO4)c1OC (configuration not stated)
EC50: > 200 µM | IC50: 120 µM

CCCCCCCCCCCCCCCc1ccc(OCC(O)CO)cc1 (configuration not stated)
EC50: > 19.1 µM | IC50: > 19.1 µM

CN1CCCc2nc3ccccc3n2C1
EC50: > 36.3 µM | IC50: > 36.3 µM

COc1ccccc1NC(=O)CC(=O)n1nc(C)c(N=Nc2ccccc2F)c1C
outcome: inactive

CC(C)CCCC(C)[C@H]1CC[C@H]2[C@@H]3CC[C@H]4C[C@@H](CCCC(c5cc(Cl)c(OCc6ccc(C(=O)O)cc6)c(C(=O)O)c5)c5cc(Cl)c(OCc6ccc(C(=O)O)cc6)c(C(=O)O)c5)CC[C@]4(C)[C@H]3CC[C@]12C (some centres not stated)
EC50: 20.4 µM and 3.39 µM | IC50: > 200 µM and 20 µM

CC(NC1CC1)c1ccccc1 (configuration not stated)
outcome: inactive

CC(=O)Oc1ccc[nH]c1=O
EC50: > 200 µM | IC50: 58.9 µM

COc1cc(/C=C2\CCOC2=O)ccc1OCc1ccccc1
EC50: > 32.4 µM | IC50: > 32.4 µM

C[C@]12Cc3cn[nH]c3C(=O)C1CC[C@@H]1C2CC[C@@]2(C)C1CC[C@@H]2O (some centres not stated)
EC50: 20 µM | IC50: 21.9 µM

COc1ccc([N-]/C(=N\n2c(=O)c(C)nn(C)c2=S)N(c2ccc(OC)cc2)c2nn3c(=O)c(C)n[n+](C)c3s2)cc1
outcome: inactive

Cc1coc2c1[C@@H](O)[C@@]1(C)[C@H](CCC[C@@H]1C)C2
EC50: > 200 µM | IC50: 35.5 µM

CN(C)/C=N/NC(=O)/C(C#N)=C/N(C)C
EC50: > 200 µM | IC50: > 200 µM

O=C(NC1=C(Cl)C(=O)c2ccccc2C1=O)C(=O)C(C(=O)c1ccc2ccccc2c1)C1OC(=O)c2ccccc21 (configuration not stated)
EC50: > 45.7 µM | IC50: 11.5 µM

COc1ccc(C(=O)/C=C/c2ccc(OCCCCCCCCCCOc3ccc(/C=C/C(=O)c4ccc(OC)c(OC)c4)cc3)cc2)c(OC)c1
outcome: inactive

CC1=C(C2CC(C)CC(OCOCc3ccccc3)O2)C(C)(C)CCC1 (configuration not stated)
EC50: > 20 µM | IC50: > 20 µM

O=C1NCC2=C1CCC1c3ccccc3CCN21 (configuration not stated)
EC50: > 200 µM | IC50: > 200 µM

C1=NCCNCCN=Cc2ccc(cc2)OCc2cccc(n2)COc2ccc1cc2
EC50: > 100 µM | IC50: > 100 µM

CN(C)C1(C(=O)O)CC1
EC50: > 200 µM | IC50: > 200 µM

Cn1c(CCN=C(N)CSS(=O)(=O)O)nc2ccccc21
EC50: > 200 µM | IC50: 174 µM

COC1(OC)/C(=C(\N)C=O)NC(C)(C)N1O
outcome: inactive

CC(C)(SSC(C)(C)C(N)C(=O)O)C(N)C(=O)O (configuration not stated)
EC50: > 427 µM | IC50: > 427 µM

Clc1ccc(Cc2nc3ccccc3s2)c(Cl)c1
EC50: > 33.9 µM | IC50: 26.3 µM

C=C1C2CC[C@@]3(CC[C@@H]4[C@@]5(C)CCC[C@@]4(C=[N+](CCOC(C)=O)C5)[C@@H]3C2)[C@@H]1OC(C)=O
outcome: inactive

O=C(O)c1ccccc1C(=O)OC1CC2CC1C1OCC21 (configuration not stated)
EC50: > 309 µM | IC50: > 309 µM

O=C(CC(=O)c1ccccc1)C(=O)NC12CC3CC(CC(C3)C1)C2
EC50: > 11.5 µM | IC50: > 11.5 µM

C[C@H](CCC(=O)O[C@@H]1CC[C@@]2(C)C(CC[C@H]3[C@@H]4CC[C@H]([C@H](C)CCc5nc6ccccc6[nH]5)[C@@]4(C)CC[C@@H]32)C1)[C@H]1CC[C@H]2[C@@H]3CCC4C[C@H](O)CC[C@]4(C)[C@H]3CC[C@]12C (some centres not stated)
EC50: > 100 µM | IC50: > 100 µM

CNC(=O)CN(CC(=O)NC)C(=O)NC
EC50: > 120 µM | IC50: > 120 µM

S=C1SSC(=S)SS1
EC50: > 33.1 µM | IC50: > 33.1 µM

CC(=O)OC(Cc1ccc2ccccc2n1)(C(F)(F)F)C(F)(F)F
outcome: inactive

CC#CCCCC1(C)CCCNC1=S (configuration not stated)
EC50: > 200 µM | IC50: > 200 µM

O=C1c2cccc3cccc(c23)C(=O)N1CCCCCCCCN1C(=O)c2cccc3cccc(c23)C1=O
EC50: > 200 µM | IC50: 14.8 µM

N#C/C(=C1/Sc2c(nc[nH]c2=O)N1c1ccccc1)c1nc2ccccc2[nH]1
EC50: > 3.8 µM | IC50: > 3.8 µM

CC(C)(O)CCCC1CCC2C3CCC4CCCCC4(C)C3CCC2(C)C1O (configuration not stated)
EC50: > 200 µM | IC50: 9.33 µM

CCOC(=O)C(=O)Nc1nc2c(OCC)cccc2s1
outcome: inactive

CC1(C)OC(=O)CC12CCN(Cc1ccccc1)CC2
EC50: > 200 µM | IC50: 195 µM

CC1(C)COC(c2cccc(C3=NC(C)(C)CO3)c2Br)=N1
EC50: > 200 µM | IC50: 151 µM

CC(C)=CCC1(O)C(=O)c2ccccc2C1(O)C(=O)O (configuration not stated)
EC50: > 200 µM | IC50: > 200 µM

Cc1nn(C)cc1P(=S)(c1ccccc1)c1ccccc1
EC50: > 16.6 µM | IC50: > 16.6 µM

COc1ccc(C2=C(N)c3ccccc3C2=O)cc1
EC50: > 200 µM | IC50: > 200 µM

CC1=N/C(=C\c2ccc(N)cc2)C(=O)N1Nc1nnc(NN2C(=O)/C(=C/c3ccc(N)cc3)N=C2C)c2ccccc12
outcome: inactive

O[C@]12C=C[C@H](CCCC1)O2
EC50: > 200 µM | IC50: 50.1 µM

C=C1CC(CNc2cc(Cl)nc(N)n2)C1
EC50: > 200 µM | IC50: 55 µM

CC1(C)CNC[C@@]2(C)OCCOCCOCCO[C@](C)(CNCC(C)(C)NC2=O)C(=O)N1
EC50: > 200 µM | IC50: > 200 µM

COC(=O)c1cc(C(=CCCBr)c2cc(Cl)c(OC)c(C(=O)OC)c2)cc(Cl)c1OC
EC50: 16.6 µM | IC50: 21.9 µM

CC(C)NC(=O)OCc1nnn2c1CCC2
outcome: inactive

CCOC(=O)C/C(C)=N\NC(=O)c1ccncc1
EC50: > 200 µM | IC50: > 200 µM

CCOC(=O)c1c(-c2ccc(OC)cc2)c(C#N)c(=S)n(C2OC(CO)C(O)C(O)C2O)c1-c1ccccc1 (configuration not stated)
EC50: > 200 µM | IC50: 34.7 µM

COC(OC)c1cccc2c1C1(O)CCC3(CC21)OCCCCO3 (configuration not stated)
EC50: > 200 µM | IC50: > 200 µM

CC(C)(c1cc(Cl)c(O)c(CN2CCOCC2)c1)c1cc(Cl)c(O)c(CN2CCOCC2)c1
EC50: > 200 µM | IC50: 107 µM

CCOP(=S)(Nc1cccc(C(F)(F)F)c1)OCC
EC50: > 200 µM | IC50: 166 µM

CCCCOC(=O)CCC(Nc1nc(Cl)nc(Cl)n1)C(=O)OCCCC (configuration not stated)
EC50: > 200 µM | IC50: > 200 µM

COc1cc2nncc(SCc3ccccc3)c2cc1OC
EC50: > 85.1 µM | IC50: > 85.1 µM

O=C1OC(C(O)CO)C(O)=C1O (configuration not stated)
outcome: inactive

Cc1cc(Br)c(O)c(-c2cscn2)c1
EC50: > 200 µM | IC50: 11.2 µM

C[CH2][Ge]([CH2]C)([CH2]C)[O]C(=O)C(OC(C)=O)c1ccccc1 (configuration not stated)
EC50: > 251 µM | IC50: 195 µM

Cc1ccc2c(c1)C(=O)C(Cc1ccccc1C(=O)O)C2 (configuration not stated)
EC50: > 200 µM | IC50: 178 µM

CCOC(=O)c1nnsc1NC(=O)Nc1ccc(Cc2ccc(NC(=O)Nc3snnc3C(=O)OCC)cc2)cc1
EC50: > 200 µM | IC50: > 200 µM

O=C(O)CCCCCCCCCCCC(=O)O
EC50: > 148 µM | IC50: > 148 µM

CC(C)CC(NC(=O)c1ccccc1SC(=O)CCCC[n+]1ccccc1)C(N)=O (configuration not stated)
EC50: 1.74 µM | IC50: 4.07 µM

c1nc2cscc2c2cscc12
outcome: inactive

S=C(SSSSC(=S)N(C1CCCCC1)C1CCCCC1)N(C1CCCCC1)C1CCCCC1
EC50: > 200 µM | IC50: 126 µM

O=C(OCCc1ccccc1)c1ccc2c(O)c(O)ccc2c1
EC50: > 8.32 µM | IC50: 6.03 µM
